In patent US20140235592A1, “SUBSTITUTED 6-METHOXY-4-AMINO-N-PHENYL-2-NAPHTAMIDES AS SPHINGOSINE RECEPTOR MODULATORS” (Allergan, Inc., priority 2013, published 2014):

What follows are molecules tested against T1, human S1P1 receptor (Homo sapiens, UniProt P21453) (assay: GTP γ35S binding assay for S1P1 activity). Settings: membranes of cells stably expressing the S1P1 receptor, test concentrations 0.08 to 5,000 nM.
T1 construct: expressed in transfected cells; membranes used
Format: biochemical
Experimental: Compounds were tested for S1 P1 activity using the GTP γ^35S binding assay. These compounds may be assessed for their ability to activate or block activation of the human S1 P1 receptor in cells stably expressing the S1 P1 receptor. GTP γ^35S binding was measured in the medium containing (mM) HEPES 25, pH 7.4, MgCl2 10, NaCl 100, dithiothreitol 0.5, digitonin 0.003%, 0.2 nM GTP γ^355, and 5 μg membrane protein in a volume of 150 μl. Test compounds were included in the concentration range from 0.08 to 5,000 nM unless indicated otherwise. Membranes were incubated with 100 μM 5′-adenylylimmidodiphosphate for 30 min, and subsequently with 10 μM GDP for 10 min on ice. Drug solutions and membrane were mixed, and then reactions were initiated by adding GTP γ^35S and continued for 30 min at 25° C. Reaction mixtures were filtered over Whatman GF/B filters under vacuum, and washed three times with 3 mL of ice-cold buffer (HEPES 25, pH7.4, MgCl2 10 and NaCl 100). Filters were dried and mixed with scintillant, and counted for ^35S activity using a β-counter. Agonist-induced GTP γ^355 binding was obtained by subtracting that in the absence of agonist. Binding data were analyzed using a non-linear regression method. In case of antagonist assay, the reaction mixture contained 10 nM S1P in the presence of test antagonist at concentrations ranging from 0.08 to 5000 nM.

T1 sequence (P21453 whole entry): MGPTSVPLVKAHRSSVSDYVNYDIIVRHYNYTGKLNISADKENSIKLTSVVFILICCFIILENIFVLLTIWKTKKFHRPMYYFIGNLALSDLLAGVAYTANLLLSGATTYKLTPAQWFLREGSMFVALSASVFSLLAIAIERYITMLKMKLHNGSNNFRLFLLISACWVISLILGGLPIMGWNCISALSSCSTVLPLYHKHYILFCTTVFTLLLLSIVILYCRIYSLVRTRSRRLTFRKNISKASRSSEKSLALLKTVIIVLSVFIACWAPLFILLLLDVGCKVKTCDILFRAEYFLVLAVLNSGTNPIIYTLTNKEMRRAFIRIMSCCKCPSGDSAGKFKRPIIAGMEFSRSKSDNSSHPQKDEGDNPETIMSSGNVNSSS

| Structure (SMILES) | EC50 [nM] |
| --- | --- |
| COc1ccc2cc(C(=O)Nc3ccc(CNCCCP(=O)(O)O)cc3)cc(N(C)CC3CC3)c2c1 [Compound 3, [3-({4-[({4-[(cyclopropylmethyl)(methyl)amino]-6-methoxynaphthalen-2-yl}carbonyl)amino]benzyl}amino)propyl]phosphonic acid] | 138 |
| CCN(CC1CC1)c1cc(C(=O)Nc2ccc(CNCCCP(=O)(O)O)cc2)cc2ccc(OC)cc12 [Compound 5, [3-({4-[({4-[(cyclopropylmethyl)(ethyl)amino]-6-methoxynaphthalen-2-yl}carbonyl)amino]benzyl}amino)propyl]phosphonic acid] | 401 |
| CCN(CC)c1cc(C(=O)Nc2ccc(CNCCCP(=O)(O)O)cc2)cc2ccc(OC)cc12 [Compound 7, (3-{[4-({[4-(diethylamino)-6-methoxynaphthalen-2-yl]carbonyl}amino)benzyl]amino}propyl)phosphonic acid] | 95 |
| CCCN(C)c1cc(C(=O)Nc2ccc(CNCCCP(=O)(O)O)cc2)cc2ccc(OC)cc12 [Compound 8, [3-({4-[({6-methoxy-4-[methyl(propyl)amino]naphthalen-2-yl}carbonyl)amino]benzyl}amino)propyl]phosphonic acid] | 160 |
| COc1ccc2cc(C(=O)Nc3ccc(CNCCCP(=O)(O)O)cc3)cc(N(C)C)c2c1 [Compound 9, (3-{[4-({[4-(dimethylamino)-6-methoxynaphthalen-2-yl]carbonyl}amino)benzyl]amino}propyl)phosphonic acid] | 494 |
